Measurements reported in patent publication US7998969B2, “Non-nucleoside reverse transcriptase inhibitors” (Roche Palo Alto LLC, priority 2006, dated 2011).
Like-named read-outs stand apart in the source and are kept apart here.

Assays:
[1] = molecular target: HIV-1 reverse transcriptase (HIV-RT enzyme) (Human immunodeficiency virus type 1 group M subtype B, UniProt P03366); experiment: HIV-1 Reverse Transcriptase Assay Inhibitor IC50 Determination (RNA-dependent DNA polymerase activity, SPA); format: biochemical
Experimental: HIV-1 Reverse Transcriptase Assay Inhibitor IC50 Determination
RNA-dependent DNA polymerase activity was measured using a biotinylated primer oligonucleotide and tritiated dNTP substrate. Newly synthesized DNA was quantified by capturing the biotinylated primer molecules on streptavidin coated Scintillation Proximity Assay (SPA) beads (Amersham). The sequences of the polymerase assay substrate were: 18 nt DNA primer, 5′-Biotin/GTC CCT GTT CGG GCG CCA-3′; 47 nt RNA template, 5′-GGGUCUCUCUGGUUAGACCACUCUAGCAGUGGCGCCCGAACAGGGAC-3′. The biotinylated DNA primer was obtained from the Integrated DNA Technologies Inc. and the RNA template was synthesized by Dharmacon. The DNA polymerase assay (final volume 50 μl) contained 32 nM biotinylated DNA primer, 64 nM RNA substrate, dGTP, dCTP, dTTP (each at 5 μM), 103 nM [^3H]-dATP (specific activity=[…]), in 45 mM Tris-HCl, pH 8.0, 45 mM NaCl, 2.7 mM Mg(CH3COO)2, 0.045% Triton X-100 w/v, 0.9 mM EDTA. The reactions contained 5 μl of serial compound dilutions in 100% DMSO for IC50 determination and the final concentrations of DMSO were 10%. Reactions were initiated by the addition of […] of the HIV-RT enzyme (final concentrations of 1-3 nM). Protein concentrations were adjusted to provide linear product formation for at least 30 min of incubation. After incubation at 30° for 30 min, the reaction was quenched by addition of 50 μl of 200 mM EDTA (pH 8.0) and 2 mg/ml SA-PVT SPA beads (Amersham, RPNQ0009, reconstituted in 20 mM Tris-HCl, pH 8.0, 100 mM EDTA and 1% BSA). The beads were left to settle overnight and the SPA signals were counted in a 96-well top counter-NXT (Packard). IC50 values were obtained by sigmoidal regression analysis using GraphPad Prism 3.0 (GraphPad Software, Inc.).

[2] = tested on: wild-type laboratory strain HIV-1HXB2; experiment: Recombinant HIV-1 Antiviral Assay (MTT cell viability assay with MT-4 cells); format: cell-based; settings: Human immunodeficiency virus 1, MT4, 120 h
Experimental: Recombinant HIV-1 Antiviral Assay
The sensitivity of a wild-type laboratory strain HIV-1HXB2 to described compounds was determined by the 3-[4,5-dimethylthiazol-2yl]-2,5-diphenyltetrazolium bromide (MTT) cell viability assay with MT-4 cells (R. Pauwels et al., “Rapid and automated tetrazolium-based colorimetric assay for the detection of anti-HIV compounds,” J. Virological Methods 1988 20:309-321). Briefly, MT-4 cells were incubated with virus (MOI 0.0001) for 1 h at 37° C. and then resuspended at 7.5×10^5/mL in RPMI 1640 (with out phenol) (Gibco) with 10% FCS and antibiotics and plated out onto a 96 well plate (Corning Costar, USA). After 5 days incubation 20 μL of MTT (Sigma-Aldrich) (5 mg/mL in PBS) was added and the plates were incubated for 2 h before the addition of 170 μL of acidified IPA. The absorbance was measured at 540 nm and the TCID50 determined by Spearman-Karber method.

[3] = MT-4 cells infected with HIV-1HXB2, MTT readout after 5 days, read-out: Antiviral Activity IC50
[4] = SPA polymerase assay, 30 min at 30°, read-out: HIVRT inhibition IC50

Row | SMILES | IC50 [1] | IC50 [2, 3] | IC50 [1, 4] | also measured
1 | Cc1cc(C#N)cc(C)c1Oc1ccnc(NC2CCN(c3cccc(S(N)(=O)=O)c3)CC2)n1 [IV-3] | 14.7 nM | 0.0004 µM | – | –
2 | Cc1cc(C#N)cc(C)c1Oc1ccnc(NC2CCN(c3cc(Cl)cc(C#N)c3)CC2)n1 [IV-23] | – | – | 37.7 nM | –
3 | Cc1cc(C#N)cc(C)c1Nc1nc(NC2CCN(c3cccc(C#N)c3)CC2)ncc1Br [V-3] | – | – | 40 nM | –
4 | Cc1cc(C#N)cc(C)c1Nc1nc(NC2CCN(c3cccc(C(N)=O)c3)CC2)ncc1Br [V-5] | 28.1 nM | 0.0015 µM | – | –
5 | Cc1cc(C#N)cc(C)c1Nc1ccnc(NC2CCN(Cc3ccc(S(C)(=O)=O)cc3Cl)CC2)n1 [III-1, 4-{2-[1-(2-Chloro-4-methanesulfonyl-benzyl)-piperidin-4-ylamino]-pyrimidin-4-ylamino}-3,5-dimethyl-benzonitrile] | 25.7 nM | 0.0022 µM | – | –
6 | Cc1cc(C#N)cc(C)c1Oc1ccnc(NC2CCN(Cc3ccccc3)CC2)n1 [I-1, 4-[2-(1-Benzyl-piperidin-4-ylamino)-pyrimidin-4-yloxy]-3,5-dimethyl-benzonitrile] | – | – | – | melting point: 162 to 163.3 °C
7 | Cc1cc(C#N)cc(C)c1Oc1nc(NC2CCN(Cc3ccccc3)CC2)ncc1Br [I-2, 4-[2-(1-Benzyl-piperidin-4-ylamino)-5-bromo-pyrimidin-4-yloxy]-3,5-dimethyl-benzonitrile] | – | – | – | melting point: 158 to 159.8 °C
8 | Cc1cc(C#N)cc(C)c1Oc1ccnc(NC2CCN(Cc3ccc(S(C)(=O)=O)cc3)CC2)n1 [I-3, 4-{2-[1-(4-Methanesulfonyl-benzyl)-piperidin-4-ylamino]-pyrimidin-4-yloxy}-3,5-dimethyl-benzonitrile] | 34.1 nM | 0.003 µM | – | –
9 | Cc1cc(C#N)cc(Cl)c1Oc1nc(NC2CCN(c3cccc(C(N)=O)c3)CC2)ncc1Br [IV-13] | 27.9 nM | 0.0058 µM | – | –
10 | Cc1cc(C#N)cc(C)c1Oc1nc(NC2CCN(Cc3ccc(S(N)(=O)=O)cc3Cl)CC2)nc(N)c1Br [II-1] | – | – | 105 nM | IC50 ([2]; read-out: Antiviral Activity IC50(μM)): 0.0086 µM
